Laboratory results taken from patent US20090104598A1, “Dopamine D2 receptor gene variants” (CENTRE FOR ADDICTION AND MENTAL HEALTH, priority 2006, published 2009).

Columns and labels:
clinical = settings: human, in vivo
Excerpt: Thus, % Score Change=(6 Month Score−Baseline Score)/(Baseline Score).

[1] = treatment refractory patients; Miller 1996; cited from earlier work

concentration at 6 month (clinical): 399 ng/mL
Structure (SMILES): CN1CCN(C2=Nc3cc(Cl)ccc3Nc3ccccc32)CC1 [clozapine]
blood clozapine threshold level that increases likelihood of clinical response [1]: 350 ng/mL
